Test results: ChEMBL document CHEMBL4706658, “Discovery and Biological Evaluation of N-Methyl-pyrrolo[2,3-b]pyridine-5-carboxamide Derivatives as JAK1-Selective Inhibitors” (J Med Chem, 2021)
The source made the active and inactive calls. No cut-off for these calls is given here.

Key:
[1] = target: T1, Tyrosine-protein kinase JAK1 (Homo sapiens, UniProt P23458)
Description: Inhibition of recombinant JAK1 (unknown origin) using GFP-STAT1 as substrate incubated for 1 hr followed by anti-pSTAT1 antibody addition and measured after 30 mins by Lanthascreen TR-FRET assay

[2] = target: T2, Non-receptor tyrosine-protein kinase TYK2 (Homo sapiens, UniProt P29597)
Description: Inhibition of recombinant TYK2 (unknown origin) using GFP-STAT1 as substrate incubated for 1 hr followed by anti-pSTAT1 antibody addition and measured after 30 mins by Lanthascreen TR-FRET assay

[3] = target: T3, Tyrosine-protein kinase JAK2 (Homo sapiens, UniProt O60674)
Description: Inhibition of recombinant JAK2 (unknown origin) using GFP-STAT1 as substrate incubated for 1 hr followed by anti-pSTAT1 antibody addition and measured after 30 mins by Lanthascreen TR-FRET assay

[4] = target: T1, Tyrosine-protein kinase JAK1; conditions: BaF3
Description: Inhibition of JAK1 (unknown origin) transfected in mouse BAF3 cells assessed as cell growth inhibition incubated for 72 hrs by CCK8 assay

[5] = target: T3, Tyrosine-protein kinase JAK2; conditions: BaF3
Description: Inhibition of JAK2 (unknown origin) transfected in mouse BAF3 cells assessed as cell growth inhibition incubated for 72 hrs by CCK8 assay

[6] = target: T4, Tyrosine-protein kinase JAK3 (Homo sapiens) (UniProt P52333); conditions: BaF3
T4 sequence (whole entry): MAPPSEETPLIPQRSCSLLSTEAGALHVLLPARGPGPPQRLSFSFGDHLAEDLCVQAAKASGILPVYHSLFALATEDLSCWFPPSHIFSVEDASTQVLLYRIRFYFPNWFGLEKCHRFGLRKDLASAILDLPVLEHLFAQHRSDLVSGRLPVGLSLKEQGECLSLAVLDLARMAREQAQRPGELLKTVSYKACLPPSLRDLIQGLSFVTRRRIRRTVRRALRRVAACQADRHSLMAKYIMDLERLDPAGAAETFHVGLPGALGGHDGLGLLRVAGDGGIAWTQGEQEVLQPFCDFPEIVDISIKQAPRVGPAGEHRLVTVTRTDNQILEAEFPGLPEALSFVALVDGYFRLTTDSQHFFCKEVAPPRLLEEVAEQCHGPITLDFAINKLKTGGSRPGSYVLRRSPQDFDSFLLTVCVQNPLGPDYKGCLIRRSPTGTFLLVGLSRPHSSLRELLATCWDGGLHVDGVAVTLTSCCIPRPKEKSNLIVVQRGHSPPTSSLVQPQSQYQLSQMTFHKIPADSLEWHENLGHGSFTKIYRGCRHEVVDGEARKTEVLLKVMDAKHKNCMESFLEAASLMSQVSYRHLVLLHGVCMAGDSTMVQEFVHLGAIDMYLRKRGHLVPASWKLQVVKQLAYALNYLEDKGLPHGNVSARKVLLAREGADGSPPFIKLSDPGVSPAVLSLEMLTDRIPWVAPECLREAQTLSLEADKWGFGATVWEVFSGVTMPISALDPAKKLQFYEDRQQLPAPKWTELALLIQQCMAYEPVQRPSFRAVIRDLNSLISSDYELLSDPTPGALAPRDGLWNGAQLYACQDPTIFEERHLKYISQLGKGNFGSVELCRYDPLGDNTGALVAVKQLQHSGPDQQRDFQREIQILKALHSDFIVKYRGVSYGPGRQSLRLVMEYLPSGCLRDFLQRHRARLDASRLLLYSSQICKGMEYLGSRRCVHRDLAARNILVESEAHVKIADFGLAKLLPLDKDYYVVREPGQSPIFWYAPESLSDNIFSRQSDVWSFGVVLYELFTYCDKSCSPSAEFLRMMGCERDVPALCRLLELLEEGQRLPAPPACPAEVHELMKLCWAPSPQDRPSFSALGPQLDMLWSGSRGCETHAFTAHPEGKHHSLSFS
Description: Inhibition of JAK3 (unknown origin) transfected in mouse BAF3 cells assessed as cell growth inhibition incubated for 72 hrs by CCK8 assay

[7] = target: T2, Non-receptor tyrosine-protein kinase TYK2; conditions: BaF3
Description: Inhibition of TYK2 (unknown origin) transfected in mouse BAF3 cells assessed as cell growth inhibition incubated for 72 hrs by CCK8 assay

[8] = tested on: LX2; conditions: Homo sapiens, dose 500.0 nM
[9] = target: Vascular endothelial growth factor receptor 1 (Homo sapiens, UniProt P17948)
[10] = cells; type: functional, LX2; conditions: Homo sapiens, LX-2, 72 h; time hrs <=72
[11] = in vitro; conditions: dog, MDCK
Description: Permeability of compound across apical to basolateral side in MDCK cells at 10 uM

[12] = in vitro; conditions: human, microsomes
Description: Metabolic stability in human liver microsomes assessed as parent compound remaining at 10 uM measured after 30 mins relative to control

[13] = in vitro; conditions: rat, microsomes
Description: Metabolic stability in rat liver microsomes assessed as parent compound remaining at 10 uM measured after 30 mins relative to control

[14] = in vitro; conditions: mouse, microsomes
Description: Metabolic stability in mouse liver microsomes assessed as parent compound remaining at 10 uM measured after 30 mins relative to control

[15] = target: CYP3A4 (Homo sapiens, UniProt P08684); test: in vitro
[16] = target: CYP2D6 (Homo sapiens, UniProt P10635); test: in vitro
Description: Inhibition of CYP2D6 (unknown origin) at 10 uM relative to control

[17] = target: CYP2C9 (Homo sapiens, UniProt P11712); test: in vitro
Description: Inhibition of CYP2C9 (unknown origin) at 10 uM relative to control

[18] = target: CYP2C19 (Homo sapiens, UniProt P33261); test: in vitro
Description: Inhibition of CYP2C19 (unknown origin) at 10 uM relative to control

[19] = target: T5, CYP1A2 (Homo sapiens, UniProt P05177); test: in vitro
T5 sequence (P05177 whole entry): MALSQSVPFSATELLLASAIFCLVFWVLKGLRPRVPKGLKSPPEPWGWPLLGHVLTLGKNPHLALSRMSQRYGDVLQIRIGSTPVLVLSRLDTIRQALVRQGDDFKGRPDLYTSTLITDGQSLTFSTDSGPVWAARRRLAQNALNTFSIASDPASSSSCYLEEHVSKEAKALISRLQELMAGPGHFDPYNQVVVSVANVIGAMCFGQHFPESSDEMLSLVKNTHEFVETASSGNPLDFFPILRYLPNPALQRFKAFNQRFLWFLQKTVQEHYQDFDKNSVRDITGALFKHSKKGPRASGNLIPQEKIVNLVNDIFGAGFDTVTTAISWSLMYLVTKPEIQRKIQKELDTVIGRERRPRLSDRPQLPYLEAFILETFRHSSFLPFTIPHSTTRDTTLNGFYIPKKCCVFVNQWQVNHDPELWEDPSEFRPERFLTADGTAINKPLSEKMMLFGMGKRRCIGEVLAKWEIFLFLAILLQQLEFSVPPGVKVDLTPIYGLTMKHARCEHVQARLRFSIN
Description: Inhibition of CYP1A2 (unknown origin) at 10 uM relative to control

[20] = in vitro; conditions: human, plasma
Description: Stability in human plasma assessed as compound remaining at 2 uM measured after 2 hrs relative to control

[21] = in vitro; conditions: rat, plasma
Description: Stability in rat plasma assessed as compound remaining at 2 uM measured after 2 hrs relative to control

[22] = in vitro; conditions: dog, MDCK; remark: listed apart in the source
Description: Permeability of compound across basolateral to apical side in MDCK cells at 10 uM

[23] = in vitro; conditions: human, lx2
[24] = tested on: LX2; conditions: Homo sapiens, dose lower […], dose upper 500.0 nM
[25] = tested on: LX2; conditions: Homo sapiens, dose 500.0 nM; remark: listed apart in the source
[26] = tested on: LX2; conditions: Homo sapiens, dose 500.0 nM; remark: listed apart in the source

T3 sequence (O60674 whole entry): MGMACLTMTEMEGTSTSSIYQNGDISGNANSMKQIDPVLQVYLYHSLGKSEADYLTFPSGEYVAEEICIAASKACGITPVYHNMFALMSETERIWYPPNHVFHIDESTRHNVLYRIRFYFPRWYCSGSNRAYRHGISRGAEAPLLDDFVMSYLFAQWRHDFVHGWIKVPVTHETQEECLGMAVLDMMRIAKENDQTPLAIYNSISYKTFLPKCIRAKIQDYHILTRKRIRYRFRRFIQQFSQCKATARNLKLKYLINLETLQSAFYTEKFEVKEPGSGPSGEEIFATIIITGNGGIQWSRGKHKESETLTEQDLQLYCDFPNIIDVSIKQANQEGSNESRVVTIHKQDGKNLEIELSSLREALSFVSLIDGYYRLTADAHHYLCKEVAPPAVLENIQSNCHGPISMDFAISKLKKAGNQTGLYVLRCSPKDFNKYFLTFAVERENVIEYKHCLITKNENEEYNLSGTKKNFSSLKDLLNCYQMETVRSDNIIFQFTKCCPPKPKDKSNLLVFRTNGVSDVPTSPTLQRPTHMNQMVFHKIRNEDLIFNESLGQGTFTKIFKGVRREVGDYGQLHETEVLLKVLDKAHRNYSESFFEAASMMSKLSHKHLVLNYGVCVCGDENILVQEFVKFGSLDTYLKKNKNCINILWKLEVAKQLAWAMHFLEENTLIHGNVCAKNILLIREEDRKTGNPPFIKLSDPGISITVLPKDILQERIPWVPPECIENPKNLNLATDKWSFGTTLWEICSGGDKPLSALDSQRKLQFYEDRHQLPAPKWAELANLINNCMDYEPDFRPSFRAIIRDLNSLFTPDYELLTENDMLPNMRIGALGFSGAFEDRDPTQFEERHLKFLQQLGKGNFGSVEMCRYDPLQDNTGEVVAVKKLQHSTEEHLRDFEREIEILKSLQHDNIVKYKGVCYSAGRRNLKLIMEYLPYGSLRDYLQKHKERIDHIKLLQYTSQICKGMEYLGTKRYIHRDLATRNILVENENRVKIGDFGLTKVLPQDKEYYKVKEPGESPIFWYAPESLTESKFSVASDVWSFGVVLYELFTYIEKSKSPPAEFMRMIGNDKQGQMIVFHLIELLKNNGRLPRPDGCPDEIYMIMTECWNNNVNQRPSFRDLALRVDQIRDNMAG
T2 sequence (P29597 whole entry): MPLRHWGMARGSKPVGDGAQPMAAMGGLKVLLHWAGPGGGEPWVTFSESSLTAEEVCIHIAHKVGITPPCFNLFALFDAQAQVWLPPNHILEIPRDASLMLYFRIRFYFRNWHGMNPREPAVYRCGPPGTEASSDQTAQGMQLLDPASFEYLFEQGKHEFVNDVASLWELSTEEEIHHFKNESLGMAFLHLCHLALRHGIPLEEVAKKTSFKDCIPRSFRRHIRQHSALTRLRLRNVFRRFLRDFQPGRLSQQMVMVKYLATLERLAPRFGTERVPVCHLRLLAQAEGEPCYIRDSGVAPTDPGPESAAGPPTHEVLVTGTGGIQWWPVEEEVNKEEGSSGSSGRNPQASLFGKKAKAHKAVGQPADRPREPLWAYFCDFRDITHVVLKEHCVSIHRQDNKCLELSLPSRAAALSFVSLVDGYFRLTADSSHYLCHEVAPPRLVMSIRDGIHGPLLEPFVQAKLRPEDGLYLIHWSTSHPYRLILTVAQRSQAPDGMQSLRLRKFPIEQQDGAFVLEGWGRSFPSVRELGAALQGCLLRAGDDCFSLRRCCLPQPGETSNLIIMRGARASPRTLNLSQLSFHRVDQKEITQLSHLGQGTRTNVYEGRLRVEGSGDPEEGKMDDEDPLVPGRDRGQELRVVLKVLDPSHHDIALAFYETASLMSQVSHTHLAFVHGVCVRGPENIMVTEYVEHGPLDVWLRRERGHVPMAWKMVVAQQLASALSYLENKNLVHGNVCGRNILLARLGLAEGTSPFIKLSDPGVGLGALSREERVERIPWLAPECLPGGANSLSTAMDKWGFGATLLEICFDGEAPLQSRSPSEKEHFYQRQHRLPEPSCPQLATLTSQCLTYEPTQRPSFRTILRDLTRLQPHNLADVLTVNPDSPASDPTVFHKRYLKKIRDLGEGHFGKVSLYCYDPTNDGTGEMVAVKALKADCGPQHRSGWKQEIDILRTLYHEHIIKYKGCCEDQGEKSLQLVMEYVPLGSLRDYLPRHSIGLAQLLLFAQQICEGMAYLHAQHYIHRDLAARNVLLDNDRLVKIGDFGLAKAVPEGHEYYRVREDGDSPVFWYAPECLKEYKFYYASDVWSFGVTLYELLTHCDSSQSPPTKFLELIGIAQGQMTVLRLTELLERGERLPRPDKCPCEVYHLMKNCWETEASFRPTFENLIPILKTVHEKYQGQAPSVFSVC
T1 sequence (P23458 whole entry): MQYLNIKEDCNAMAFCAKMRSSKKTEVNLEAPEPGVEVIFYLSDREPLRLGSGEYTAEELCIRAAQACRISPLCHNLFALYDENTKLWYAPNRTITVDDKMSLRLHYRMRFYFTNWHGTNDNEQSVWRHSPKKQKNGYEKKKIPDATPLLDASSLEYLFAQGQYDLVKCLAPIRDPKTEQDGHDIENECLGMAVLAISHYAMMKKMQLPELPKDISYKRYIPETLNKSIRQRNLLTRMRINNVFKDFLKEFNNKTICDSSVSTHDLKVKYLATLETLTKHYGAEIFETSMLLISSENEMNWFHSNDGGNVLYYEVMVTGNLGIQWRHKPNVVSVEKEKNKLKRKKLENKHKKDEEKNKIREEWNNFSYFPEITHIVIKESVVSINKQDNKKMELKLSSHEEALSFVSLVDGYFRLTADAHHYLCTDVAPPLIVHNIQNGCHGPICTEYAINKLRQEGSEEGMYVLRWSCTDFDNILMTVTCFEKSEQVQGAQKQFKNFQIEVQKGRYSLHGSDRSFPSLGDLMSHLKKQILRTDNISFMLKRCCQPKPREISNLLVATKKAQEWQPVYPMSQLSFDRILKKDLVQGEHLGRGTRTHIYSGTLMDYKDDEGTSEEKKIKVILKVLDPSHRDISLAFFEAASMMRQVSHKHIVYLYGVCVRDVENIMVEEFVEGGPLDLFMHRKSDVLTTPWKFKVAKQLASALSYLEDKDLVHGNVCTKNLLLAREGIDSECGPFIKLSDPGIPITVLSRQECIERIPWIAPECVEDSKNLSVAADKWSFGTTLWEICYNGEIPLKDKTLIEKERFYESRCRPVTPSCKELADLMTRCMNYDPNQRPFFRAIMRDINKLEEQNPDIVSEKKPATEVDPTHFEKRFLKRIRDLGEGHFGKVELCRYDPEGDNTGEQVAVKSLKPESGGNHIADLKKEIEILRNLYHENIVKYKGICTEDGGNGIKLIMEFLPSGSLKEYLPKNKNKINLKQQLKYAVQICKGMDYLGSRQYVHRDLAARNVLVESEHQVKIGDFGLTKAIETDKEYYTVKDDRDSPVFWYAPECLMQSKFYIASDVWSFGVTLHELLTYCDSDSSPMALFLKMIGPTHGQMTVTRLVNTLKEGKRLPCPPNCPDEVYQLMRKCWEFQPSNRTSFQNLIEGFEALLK
CYP2C9, sequence (P11712 whole entry): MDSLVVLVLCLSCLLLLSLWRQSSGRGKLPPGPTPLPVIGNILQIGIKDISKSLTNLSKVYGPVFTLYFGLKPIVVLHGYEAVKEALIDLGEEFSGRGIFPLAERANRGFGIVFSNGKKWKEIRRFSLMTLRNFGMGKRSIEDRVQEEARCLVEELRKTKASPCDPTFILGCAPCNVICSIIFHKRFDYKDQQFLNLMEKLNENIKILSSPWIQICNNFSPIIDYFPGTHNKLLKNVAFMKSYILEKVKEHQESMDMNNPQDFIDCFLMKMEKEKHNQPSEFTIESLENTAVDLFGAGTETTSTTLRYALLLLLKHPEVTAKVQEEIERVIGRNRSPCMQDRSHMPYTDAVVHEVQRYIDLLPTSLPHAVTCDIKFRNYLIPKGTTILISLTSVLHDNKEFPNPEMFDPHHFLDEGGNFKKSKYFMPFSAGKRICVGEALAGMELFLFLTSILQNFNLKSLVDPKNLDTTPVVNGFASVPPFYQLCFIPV
CYP2C19, sequence (P33261 whole entry): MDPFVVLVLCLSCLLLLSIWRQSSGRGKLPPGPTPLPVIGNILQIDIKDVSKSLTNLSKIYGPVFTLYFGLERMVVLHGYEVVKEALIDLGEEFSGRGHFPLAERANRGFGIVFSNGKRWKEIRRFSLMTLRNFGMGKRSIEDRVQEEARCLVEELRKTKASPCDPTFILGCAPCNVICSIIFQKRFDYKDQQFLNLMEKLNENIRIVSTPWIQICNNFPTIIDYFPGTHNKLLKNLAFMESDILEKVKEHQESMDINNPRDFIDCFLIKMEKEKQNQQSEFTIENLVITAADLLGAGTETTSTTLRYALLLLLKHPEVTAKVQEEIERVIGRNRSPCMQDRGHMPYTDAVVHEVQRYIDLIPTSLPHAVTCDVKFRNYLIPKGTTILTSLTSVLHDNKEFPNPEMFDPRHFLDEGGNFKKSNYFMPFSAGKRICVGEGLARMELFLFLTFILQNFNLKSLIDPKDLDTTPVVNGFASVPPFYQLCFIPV
CYP3A4, sequence (P08684 whole entry): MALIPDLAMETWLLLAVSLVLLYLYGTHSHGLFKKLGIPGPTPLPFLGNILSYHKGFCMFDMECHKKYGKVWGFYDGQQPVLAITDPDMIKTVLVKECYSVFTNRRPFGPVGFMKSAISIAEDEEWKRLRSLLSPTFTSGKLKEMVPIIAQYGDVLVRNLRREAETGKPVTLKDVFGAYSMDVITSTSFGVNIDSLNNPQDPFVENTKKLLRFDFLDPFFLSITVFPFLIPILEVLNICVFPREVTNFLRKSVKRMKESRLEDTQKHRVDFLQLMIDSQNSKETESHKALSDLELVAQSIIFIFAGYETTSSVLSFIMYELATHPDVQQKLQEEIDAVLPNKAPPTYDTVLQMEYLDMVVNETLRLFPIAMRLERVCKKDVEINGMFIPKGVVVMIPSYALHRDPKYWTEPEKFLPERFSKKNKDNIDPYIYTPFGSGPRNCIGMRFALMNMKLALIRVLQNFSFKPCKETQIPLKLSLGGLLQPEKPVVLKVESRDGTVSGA

Work on `CNC(=O)c1cnc2[nH]ccc2c1NC1CCN(Cc2cccc(C#N)c2)CC1` yielded an IC50 [1] of 82 nM, an IC50 [2] of 710 nM and an IC50 [3] of 759 nM.
`COc1cccc(CN2CCC(Nc3c(C(=O)NC4CCCC4)cnc4[nH]ccc34)CC2)c1` gave an IC50 [1] of 3280 nM, an IC50 [2] greater than 10000 nM and an IC50 [3] greater than 10000 nM.
Compound `O=C(Nc1nc2cccc(-c3ccc(CN4CCS(=O)(=O)CC4)cc3)n2n1)C1CC1` has a GI50 [4] of 798 nM, a GI50 [5] greater than 10000 nM and a GI50 [6] greater than 10000 nM. For the same compound, the GI50 [7] was 7190 nM and the inhibition [8] was “Active”.
`CNC(=O)c1cnc2[nH]ccc2c1NC1CCN(Cc2ccc(OC)c(OC)c2)CC1` gave an IC50 [1] of 8400 nM and an IC50 [3] greater than 10000 nM.
`CNC(=O)c1cnc2[nH]ccc2c1N[C@@H]1CCN(Cc2cccc(Cl)c2)[C@@H](C)C1` (relative stereo) gave a GI50 [4] of 232 nM, a GI50 [6] greater than 10000 nM and a GI50 [7] of 4750 nM.
Work on `CNC(=O)c1cnc2[nH]ccc2c1NC1CCN(Cc2ccccc2)CC1` yielded an IC50 [1] of 65 nM and an IC50 [2] of 586 nM.
In the case of `CNC(=O)c1cnc2[nH]ccc2c1NC1CCN(Cc2cccc(OC)c2)CC1`, the IC50 [1] is reported as 18 nM, the IC50 [2] is reported as 1210 nM and the IC50 [3] is reported as 469 nM.
`CNC(=O)c1cnc2[nH]ccc2c1NC1CCN(c2ccccc2)CC1` gave an IC50 [1] of 160 nM.
`CNC(=O)c1cnc2[nH]ccc2c1N[C@@H]1CCN(Cc2ccc(Cl)cc2)[C@H](C)C1` (relative stereo) [listing 1 of 2 here] showed an IC50 [9] of 106 nM, a GI50 [10] of 5790 nM and a Papp A→B at 10 µM [11] of 1.9 ×10⁻⁶ cm/s. It also gave a remaining at 0.5 h, 10 µM [12] of 80.6%, a remaining at 0.5 h, 10 µM [13] of 11.6% and a remaining at 0.5 h, 10 µM [14] of 28.2%. It also gave an inhibition at 10 µM [15] of 92.9%, an inhibition at 10 µM [16] of 77.1% and an inhibition at 10 µM [17] of 70%. The inhibition at 10 µM [18] was 75.7%, the inhibition at 10 µM [19] was 74.8% and the remaining at 2 h, 2 µM [20] was greater than 100%. For the same compound, the remaining at 2 h, 2 µM [21] was 92.6%, the Papp B→A at 10 µM [22] was 3.7 ×10⁻⁶ cm/s and the GI50 at 48 h [23] was greater than 10000 nM.
`CNC(=O)c1cnc2[nH]ccc2c1NC1CCN(Cc2ccccc2OC)CC1` showed an IC50 [1] of 406 nM, an IC50 [2] of 4180 nM and an IC50 [3] of 7060 nM.
`COc1cccc(CN2CCC(Nc3c(C(=O)NC4CC4)cnc4[nH]ccc34)CC2)c1` gave an IC50 [1] of 2960 nM, an IC50 [2] greater than 10000 nM and an IC50 [3] greater than 10000 nM.
`CNC(=O)c1cnc2[nH]ccc2c1N[C@@H]1CCN(Cc2ccc(Cl)cc2)[C@H](C)C1` showed a GI50 [4] of 2950 nM, a GI50 [6] greater than 10000 nM and a GI50 [7] greater than 10000 nM.
With `CNC(=O)c1cnc2[nH]ccc2c1N[C@H]1CCN(Cc2ccc(Cl)cc2)[C@@H](C)C1` the GI50 [4] was 6.4 nM, the GI50 [6] was 1140 nM and the GI50 [7] was 475 nM.
`COc1cccc(CN2CCC(Nc3c(C(N)=O)cnc4[nH]ccc34)CC2)c1` gave an IC50 [1] of 195 nM.
`CC(=O)Nc1cc(Oc2ccc3c(c2)CCN3C(=O)Nc2ccc(CN3CCN(C)CC3)c(C(F)(F)F)c2)ncn1` gave a GI50 [4] of 129 nM, a GI50 [5] of 409 nM and a GI50 [6] of 451 nM. It also gave a GI50 [7] of 150 nM.
Work on `CNC(=O)c1cnc2[nH]ccc2c1NC1CCCN(Cc2cccc(Cl)c2)CC1` (centres undefined) yielded a GI50 [4] of 476 nM, a GI50 [5] of 7690 nM and a GI50 [6] greater than 10000 nM. It also gave a GI50 [7] greater than 10000 nM.
Work on `CNC(=O)c1cnc2[nH]ccc2c1NC1CCN(Cc2ccc(OC)cc2)CC1` yielded an IC50 [1] of 202 nM and an IC50 [3] of 3540 nM.
`O=C(NC1CC1)c1cnc2[nH]ccc2c1NC1CCN(Cc2ccccc2)CC1` showed an IC50 [1] of 114 nM, an IC50 [2] of 1350 nM and an IC50 [3] of 232 nM.
With `O=C(NC1CCCC1)c1cnc2[nH]ccc2c1NC1CCN(Cc2ccccc2)CC1` the IC50 [1] was greater than 10000 nM.
`C[C@@H]1C[C@H](Nc2c(C(N)=O)cnc3[nH]ccc23)CCN1Cc1cccc(Cl)c1` (relative stereo) showed an IC50 [1] of 6.87 nM, an IC50 [2] of 48.4 nM and an IC50 [3] of 93.8 nM.
In the case of `CNC(=O)c1cnc2[nH]ccc2c1NC1CCCN(Cc2cccc(OC)c2)CC1` (centres undefined), the IC50 [1] is reported as 8.61 nM, the IC50 [2] is reported as 42.7 nM and the IC50 [3] is reported as 4.34 nM.
Work on `NC(=O)c1cnc2[nH]ccc2c1NC1CCN(Cc2ccccc2)CC1` yielded an IC50 [2] of 110 nM.
With `COc1cccc(CN2CC[C@@H](Nc3c(C(N)=O)cnc4[nH]ccc34)C[C@H]2C)c1` (relative stereo) the IC50 [1] was 17.2 nM, the IC50 [2] was 157 nM and the IC50 [3] was 57.6 nM.
For `CNC(=O)c1cnc2[nH]ccc2c1NC1CC2CCC(C1)N2Cc1ccc(Cl)cc1` (centres undefined), the GI50 [4] was 1800 nM, the GI50 [5] was 3950 nM and the GI50 [6] was 3900 nM. The GI50 [7] was 1710 nM.
Compound `CNC(=O)c1cnc2[nH]ccc2c1N[C@@H]1CCN(Cc2cccc(OC)c2)C[C@@H]1F` (relative stereo) has a GI50 [4] of 214 nM and a GI50 [7] of 9650 nM.
In the case of `CNC(=O)c1cnc2[nH]ccc2c1NC1CCCN(Cc2ccccc2)CC1` (centres undefined), the IC50 [2] is reported as 276 nM and the IC50 [3] is reported as 89.3 nM.
`CNC(=O)c1cnc2[nH]ccc2c1N[C@@H]1CCN(Cc2ccc(Cl)cc2)[C@H](C)C1` (relative stereo) [listing 2 of 2 here] gave a GI50 [4] of 10.5 nM, a GI50 [6] of 1360 nM and a GI50 [7] of 655 nM. For the same compound, the inhibition [24] was “Active”, the inhibition [25] was “Active” and the inhibition [26] was “Active”. The inhibition [8] was “Active”.
